From PubChem BioAssay (NCI) come the findings set out here.

Among the test systems are ACHN renal; HOP-92 NSCLC; K-562 leukemia; OVCAR-5 ovarian; PC-3 prostate; T-47D breast; A549 NSCLC; HT29 colon; KM12 colon; MALME-3M melanoma.
Assay in all cases: NCI tumour cell line growth inhibition, 48 h

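Dose response: 5 concentrations. Exposure: 48 h. Format: 96-well plates. Endpoint: linear interpolation; highest concentration if not reached. Here, GI50 denotes the concentration required for 50% inhibition of growth. TGI: concentration producing complete growth inhibition.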

Take `O=C(CSc1ncc(-c2ccccc2)n1-c1ccccc1)Nc1ccc(-c2nc3ccccc3s2)cc1`: the GI50 is 14.5 µM with ACHN renal; 22.6 µM in the assay on HOP-92 NSCLC; more than 100 µM in the assay with K-562 leukemia; more than 100 µM with OVCAR-5 ovarian; more than 100 µM in the assay on PC-3 prostate; 4.51 µM in the assay with T-47D breast. Moreover, the TGI with ACHN renal was more than 100 µM; with HOP-92 NSCLC, 83.1 µM; with K-562 leukemia it was more than 100 µM; in the assay with OVCAR-5 ovarian, more than 100 µM; in the assay with PC-3 prostate it was more than 100 µM; in the assay with T-47D breast, more than 100 µM.
Turning to `FC(F)(F)c1ccc(NCc2nc3ccccc3[nH]2)cc1`, the GI50 is 27.7 µM with A549 NSCLC; 34.5 µM in the assay with ACHN renal; 12.9 µM in the assay with HOP-92 NSCLC; 27.9 µM in the assay with HT29 colon; 29.7 µM in the assay with KM12 colon; 23.9 µM with MALME-3M melanoma. Further, the GI50 with OVCAR-5 ovarian is 27.8 µM; in the assay on PC-3 prostate, 18.8 µM; in the assay with T-47D breast, 26.5 µM. In addition, the TGI in the assay on A549 NSCLC was more than 100 µM; in the assay with ACHN renal it was more than 100 µM; with HOP-92 NSCLC, 36.8 µM; with HT29 colon it was 81.3 µM; in the assay with KM12 colon it was 87.7 µM; in the assay on MALME-3M melanoma, 69.5 µM. Besides, the TGI with OVCAR-5 ovarian is 78.3 µM; with PC-3 prostate, 75.8 µM; in the assay with T-47D breast, 80.6 µM.
With `O=C(c1ccco1)c1c(C(F)(F)F)n([O-])c2ccc(F)cc2[n+]1=O`, the GI50 in the assay with A549 NSCLC was 3.08 µM; in the assay on ACHN renal, 1.33 µM; with HOP-92 NSCLC, 0.802 µM; in the assay with K-562 leukemia it was 0.065 µM; in the assay with KM12 colon, 0.213 µM; in the assay on MALME-3M melanoma, 1.09 µM. Moreover, the values for the GI50 with OVCAR-5 ovarian, with PC-3 prostate and in the assay with T-47D breast were 5.97 µM, 1.01 µM and 0.54 µM, respectively. Also, the TGI in the assay with A549 NSCLC is 9.87 µM; with ACHN renal it was 2.62 µM; in the assay with HOP-92 NSCLC, 2.55 µM; in the assay on K-562 leukemia it was 0.219 µM; in the assay on KM12 colon it was 0.568 µM; with MALME-3M melanoma, 3.21 µM. In addition, the TGI in the assay on OVCAR-5 ovarian was 17.5 µM; in the assay with PC-3 prostate, 2.47 µM; with T-47D breast it was 3.21 µM.
Regarding `COc1cc(/C=C/c2ccccn2)cc(OC)c1OC`, the TGI in the assay with A549 NSCLC, in the assay with ACHN renal, in the assay on HOP-92 NSCLC, with HT29 colon, with K-562 leukemia and in the assay on KM12 colon was more than 10 µM throughout. The TGI with MALME-3M melanoma, with OVCAR-5 ovarian, in the assay on PC-3 prostate and in the assay on T-47D breast was more than 10 µM in each case.
Consider `Cc1cc(C#Cc2ccccc2)ccc1-n1c(/C=C/c2cc(O)ccc2O)nc2ccccc2c1=O`, for which the GI50 is 1.28 µM in the assay with A549 NSCLC; 1.44 µM with ACHN renal; 1.54 µM with HOP-92 NSCLC; 1.97 µM in the assay on HT29 colon; 1.42 µM in the assay with K-562 leukemia; 1.65 µM in the assay with KM12 colon. The GI50 with MALME-3M melanoma was 1.5 µM; in the assay with OVCAR-5 ovarian it was 1.39 µM; in the assay on PC-3 prostate it was 2.19 µM; with T-47D breast, 1.14 µM. Also, the TGI was 2.68 µM with A549 NSCLC; 2.75 µM in the assay with ACHN renal; 4.33 µM in the assay on HOP-92 NSCLC; 4.19 µM in the assay on HT29 colon; 3.82 µM with K-562 leukemia; 3.07 µM in the assay with KM12 colon. In addition, the TGI with MALME-3M melanoma amounted to 3.72 µM; in the assay on OVCAR-5 ovarian, 2.7 µM; with PC-3 prostate, 8.34 µM; in the assay on T-47D breast, 3.67 µM.
Turning to `COc1cccc(/C=C\c2ccnc3ccccc23)c1`, the TGI in the assay with A549 NSCLC, in the assay on ACHN renal, in the assay on HOP-92 NSCLC, in the assay on HT29 colon, with K-562 leukemia and with KM12 colon was more than 10 µM in each case. The TGI with MALME-3M melanoma, with OVCAR-5 ovarian, in the assay with PC-3 prostate and with T-47D breast was more than 10 µM throughout.
In the case of `CC(C)[C@H](C(=O)O[C@@H]1/C=C/C(=O)O[C@@H](C)CCC/C=C/[C@@H]2C[C@H](O)C[C@H]21)N(C)C`, the GI50 in the assay with A549 NSCLC was 14.6 µM; with ACHN renal it was 35.2 µM; in the assay with HOP-92 NSCLC, 36.4 µM; in the assay with HT29 colon, 4.67 µM; in the assay with K-562 leukemia it was 23.7 µM; in the assay with KM12 colon, 3.65 µM. The GI50 was 6.97 µM in the assay with MALME-3M melanoma, 20.4 µM with OVCAR-5 ovarian, 10.9 µM with PC-3 prostate and 31 µM in the assay on T-47D breast. Moreover, the TGI was more than 94.4 µM in the assay with A549 NSCLC; more than 100 µM with ACHN renal; 96.4 µM with HOP-92 NSCLC; more than 36 µM in the assay with HT29 colon; 58.1 µM in the assay with K-562 leukemia; 11 µM with KM12 colon. For the same molecule, the TGI in the assay with MALME-3M melanoma was 32.1 µM; in the assay on OVCAR-5 ovarian, more than 89.5 µM; in the assay on PC-3 prostate, more than 57.8 µM; in the assay with T-47D breast, more than 100 µM.
As for `Cc1[nH]n(-c2cccc(Cl)c2)c(=O)c1/C=C1\C=c2ccccc2=CC1=O`, the GI50 is more than 100 µM in the assay with A549 NSCLC; 17 µM in the assay on ACHN renal; more than 100 µM in the assay with HT29 colon; 44.7 µM in the assay with K-562 leukemia; more than 100 µM in the assay with KM12 colon; 29.2 µM in the assay with MALME-3M melanoma. Also, the GI50 in the assay with OVCAR-5 ovarian, in the assay on PC-3 prostate and with T-47D breast was more than 100 µM throughout. Also, the TGI with A549 NSCLC, in the assay on ACHN renal, in the assay on HT29 colon, in the assay with K-562 leukemia, with KM12 colon and in the assay on MALME-3M melanoma was more than 100 µM each time. Moreover, the TGI in the assay with OVCAR-5 ovarian, in the assay with PC-3 prostate and in the assay with T-47D breast was more than 100 µM in each case.
For the molecule `O=C(/C=C/c1ccccc1)OCC1=C[C@@H](O)[C@@H]2C=CO[C@@H](OC3OC(CO)C(O)C(O)C3O)[C@H]12` (stereo partly drawn), the TGI in the assay on A549 NSCLC, with ACHN renal, with HOP-92 NSCLC, in the assay with HT29 colon, in the assay on KM12 colon and with MALME-3M melanoma was more than 100 µM throughout. Moreover, the TGI in the assay with OVCAR-5 ovarian, in the assay on PC-3 prostate and in the assay on T-47D breast was more than 100 µM each time.
On to `COC1=CC2CCN3Cc4cc5c(cc4C(C1O)C23)OCC5` (stereo not drawn), for which the GI50 with A549 NSCLC is 1.26 µM; with ACHN renal it was 0.306 µM; with HOP-92 NSCLC, 2.97 µM; in the assay with HT29 colon it was 0.97 µM; in the assay with K-562 leukemia it was 3.51 µM; in the assay on KM12 colon, 3.06 µM. For the same molecule, the values for the GI50 in the assay with OVCAR-5 ovarian, in the assay on PC-3 prostate and in the assay with T-47D breast were 2.48 µM, 2.67 µM and 1.33 µM, respectively. The TGI was 8.19 µM in the assay with A549 NSCLC; 2.31 µM with ACHN renal; more than 28 µM with HOP-92 NSCLC; 9.48 µM in the assay with HT29 colon; more than 100 µM in the assay with K-562 leukemia; 30.3 µM in the assay on KM12 colon. Besides, the TGI with OVCAR-5 ovarian is 22.8 µM; in the assay on PC-3 prostate, more than 47 µM; in the assay with T-47D breast, 6.51 µM.
Turning to `O=C1N=C(Nc2nc(-c3csc(NC4=NC(=O)/C(=C\c5ccc(Cl)cc5)S4)n3)cs2)S/C1=C/c1ccc(Cl)cc1`, the GI50 in the assay with A549 NSCLC was 10.5 µM; with ACHN renal, 11.2 µM; in the assay with HOP-92 NSCLC it was 8.61 µM; in the assay on HT29 colon it was 23.6 µM; in the assay on K-562 leukemia it was 7.23 µM; in the assay on KM12 colon, 10.1 µM. Moreover, the GI50 was 25.8 µM in the assay on OVCAR-5 ovarian, 8.78 µM in the assay on PC-3 prostate and 18.8 µM in the assay with T-47D breast. Also, the TGI in the assay with A549 NSCLC is more than 50 µM; in the assay with ACHN renal it was 48.5 µM; in the assay with HOP-92 NSCLC, 28.5 µM; with HT29 colon, more than 50 µM; with K-562 leukemia it was more than 50 µM; with KM12 colon it was 35.6 µM. The TGI was more than 50 µM in the assay on OVCAR-5 ovarian, 49 µM in the assay on PC-3 prostate and more than 50 µM in the assay on T-47D breast.
For the molecule `C=C1C(=O)C2(C)OC2(C)C1C(=O)O` (stereo not drawn), the TGI in the assay with A549 NSCLC, with ACHN renal, in the assay with HOP-92 NSCLC, in the assay on HT29 colon, with K-562 leukemia and in the assay with KM12 colon was more than 100 µM throughout. Besides, the TGI with OVCAR-5 ovarian, with PC-3 prostate and with T-47D breast was more than 100 µM each time.
Consider `CC1(C)OC(=O)C(=Cc2ccc([N+](=O)[O-])s2)C(=O)O1`, for which the TGI in the assay on A549 NSCLC is more than 100 µM; in the assay with ACHN renal it was 27.3 µM; with HOP-92 NSCLC, 37.9 µM; in the assay with HT29 colon it was 38.5 µM; in the assay on KM12 colon, 29 µM; with MALME-3M melanoma, 34.2 µM. The TGI in the assay on OVCAR-5 ovarian turned out to be 31.2 µM; in the assay with PC-3 prostate, 38.1 µM; with T-47D breast, 38 µM.
With `COC(=O)C1(C)CCCC2(C)c3cc(OC)ccc3C(=O)C(Br)C12` (stereo not drawn), the TGI with A549 NSCLC is more than 10 µM; in the assay with HOP-92 NSCLC it was more than 10 µM; with HT29 colon, more than 10 µM; in the assay with K-562 leukemia, more than 10 µM; with KM12 colon, more than 10 µM; in the assay on MALME-3M melanoma, 9.71 µM. In addition, the TGI with OVCAR-5 ovarian, in the assay with PC-3 prostate and in the assay on T-47D breast was more than 10 µM throughout.
